Reference: US10814010B2, “FOXC2 inhibitor and methods of use thereof” (The Board of Regents of The University of Texas System, priority 2018, dated 2020)

What was measured:
PC3 cells = assay: MTT cell viability assay, PC3; format: cell-based
From the text: Inhibition of EMT in CRPC could lead to a new form of therapeutics to aid once androgen-independence is achieved. However, in order for MC-1-F2 to be considered an effective chemotherapeutic agent, its EC50 in prostate cancer needed to be determined as well as how it compares to other chemotherapeutic agents on the market and whether it is able to inhibit chemoresistance or lower the sensitivity of CRPC to commercially available drugs. In order to determine the EC50 of MC-1-F2, an MTT assay on cell viability was performed in both DU145 and PC3. […] These doses are higher than those encountered with breast cancer cell lines. This is most likely due to the lower FOXC2 expression levels founds in prostate cell lines when compared to the breast cell lines.
(§1) Cell viability was assessed by MTT (3-(4,5-Dimethylthiazol-2-yl)-2,5-Diphenyltetrazolium Bromide) assay 5,000 cells were seeded on a 96-well cell culture plate and were incubated for at least 24 hours prior to drug treatment. The MTT reagent (Fisher Scientific) was added to the culture medium 3 hours prior to the end of compound incubation. The reaction took place in the 37° C. incubator with 5% CO2 for 3 hours. Cell culture medium was then removed from the wells. Cells with the insoluble purple formazan were lysed with DMSO for 10 mins at room temperature, 200 μL per well. Absorbance was read at 570 nm using a plate reader.

DU145 cells = assay: MTT cell viability assay, DU145; format: cell-based; conditions: single agent
Experimental: In order to determine the EC50 of MC-1-F2, an MTT assay on cell viability was performed in both DU145 and PC3.
as §1

EC50 (PC3 cells; Homo sapiens, PC-3, single agent)	Compound	effect on cell viability (PC3 cells; single agent)	effect on cell viability (DU145 cells)
	CNC(=O)c1ccc(N2C(=S)N(c3ccc(C#N)c(C(F)(F)F)c3)C(=O)C2(C)C)cc1F [Enzalutamide, reference compound]	no effect	no effect
7.6 nM	CC(=O)O[C@@]12CO[C@@H]1C[C@H](O)[C@@]1(C)C(=O)[C@H](O)C3=C(C)[C@@H](OC(=O)[C@H](O)[C@@H](NC(=O)OC(C)(C)C)c4ccccc4)C[C@@](O)([C@@H](OC(=O)c4ccccc4)[C@H]21)C3(C)C [docetaxel]		
